One data set relates to nontumor-bearing mice. In kind it is in vivo. The conditions noted are these: control, 4 × 0.3 nmol unlabeled DOTATATE; nontumor-bearing mice; n=8. On the procedure:
MTD was defined as the highest dose given to the animals allowing 100% survival with no significant weight loss >15% throughout the experiment. Nontumor-bearing mice were randomly divided into seven cohorts used to evaluate MTD, six treatments and one control (n = 8/cohort); see Table 1. […] Control mice received DOTATATE (4 × 0.3 nmol) on four consecutive days. The animals were followed for 90 days. Serum was analyzed for the biomarker neutrophil gelatinase-associated lipocalin (NGAL) using ELISA (R&D Systems, 450 nm).

The subject of another data set is patients. The conditions noted are these: in vivo; cited from earlier work. The source says:
Radiolabeled somatostatin analogs are known to accumulate in the renal proximal tubules, due to their net charge, electrostatic forces, and charge distribution from metal-chelation. This can result in a high absorbed dose and subsequent renal dysfunction.

These results are taken from PMC5118228 (EJNMMI Research, 2016).

Turning to `C[C@@H](O)[C@H](NC(=O)[C@@H]1CSSC[C@H](NC(=O)[C@@H](Cc2ccccc2)NC(=O)CN2CCN(CC(=O)O)CCN(CC(=O)O)CCN(CC(=O)O)CC2)C(=O)N[C@@H](Cc2ccc(O)cc2)C(=O)N[C@H](Cc2c[nH]c3ccccc23)C(=O)N[C@@H](CCCCN)C(=O)N[C@@H]([C@@H](C)O)C(=O)N1)C(=O)O` [DOTATATE], in the data set on nontumor-bearing mice, the “survival at 90 days post-treatment” value is on record as “all control animals survived”. In the case of `C[C@@H](O)[C@H](NC(=O)[C@@H]1CSSC[C@H](NC(=O)[C@@H](Cc2ccccc2)NC(=O)CN2CCN(CC(=O)[O-])CCN(CC(=O)[O-])CCN(CC(=O)[O-])CC2)C(=O)N[C@@H](Cc2ccc(O)cc2)C(=O)N[C@H](Cc2c[nH]c3ccccc23)C(=O)N[C@@H](CCCCN)C(=O)N[C@@H]([C@@H](C)O)C(=O)N1)C(=O)O.[177Lu+3]` [^177Lu-DOTATATE, ^177Lu-[DOTA^0,Tyr^3]octreotate], in the data set with patients, the “reduction of renal uptake by co-infusion of L-lysine/L-arginine” value is listed as 30–50%.
